Experimental data from article PMC10287669, “[1,2,4]triazolo[3,4-b][1,3,4]thiadiazole derivatives as new therapeutic candidates against urease positive microorganisms: design, synthesis, pharmacological evaluations, and in silico studies” (Scientific Reports, 2023).
Converted amounts (≈) assume the structure as drawn. Where two headings read alike, the source gives them in different places.

Legend:
urease [1] = settings: cited from earlier work
Jack bean urease = Jack bean urease (Canavalia ensiformis, UniProt P07374); experiment: Screening of urease inhibitory activities (indophenol method, enzymatic); format: biochemical
Protocol: Urease inhibition effects of the synthesized compounds were determined according to the previously reported procedure[37]–[39]. Briefly, 100 μL of the synthesized compounds at different concentrations was added to 850 μL of urea as substrate and 50 μL urease (3 mg/mL) in phosphate buffer, pH = 7.4). After 30 min, to 100 μL of the incubated solution, 500 μL of solution I (5.0 g phenol and 25.0 mg sodium nitroprusside in 500 mL water) was added, followed by the addition of 500 μL of solution II (2.5 g sodium hydroxide, 4.2 mL sodium hypochlorite, and 5% chlorine in 500 mL water) which was further incubated at 37 °C for 30 min. The absorbance of blue-colored indophenol of each cell is related to the percentage of enzyme inhibition using the following equation at 625 nm. The IC50 values for all synthesized compounds were calculated using GraphPad Prism software (GraphPad Software, Inc., San Diego, CA).

urease [2] = target: urease (Canavalia ensiformis, UniProt P07374); experiment: Kinetic study of urease inhibition (Lineweaver–Burk); format: biochemical, Jack bean
Protocol: The kinetic study for the inhibition of urease by compound 6a was carried out using four different concentrations of inhibitor. Compound 6a was tested at […] concentrations against urease for the kinetic study. The Lineweaver–Burk reciprocal plot was constructed by plotting 1/V against 1/[S] at variable concentrations of the substrate urea (3.12 to 100 mM). The inhibition constant Ki was calculated by the plot of slopes versus the corresponding concentrations of compound 6a.

[3] = system: Cryptococcus neoformans (H99); experiment: In vitro antimicrobial activity, CLSI microbroth dilution (yeast); format: cell-based
Protocol: The antimicrobial activities of all derivatives against C. neoformans (H99), and clinical isolate of P. mirabilisas urease positive microorganism, were tested as recommended by the Clinical and Laboratory Standards Institute (CLSI) (M07-A9 for bacteria; M27-A3 for yeasts). The compounds were diluted, and stock solutions of 20 mg/mL in DMSO were prepared. Mueller–Hinton Broth (HiMedia) and RPMI-1640 (Sigma) were prepared as recommended for antimicrobial susceptibility testing of bacterial and fungal strains, respectively. Two-fold dilutions were made in the range of 1–512 μg/mL for tested compounds. The microbroth dilution test was accomplished using a 96-well microtiter plate containing growth control (drug free wellls) and sterility control (only broth media). The antimicrobial susceptibility test was accomplished by adding a cell suspension adjusted to the 0.5 McFarland standard (1–2 × 10^8 CFU/mL for bacterial strains; 1–5 × 10^6 cells/mL for yeast) to different concentrations of tested compounds. […] All experiments were performed in duplicates.

Proteus mirabilis = experiment: In vitro antimicrobial activity, CLSI microbroth dilution (bacteria); format: cell-based; settings: clinical isolate
Protocol: M27-A3 for yeasts). The compounds were diluted, and stock solutions of 20 mg/mL in DMSO were prepared. Mueller-Hinton Broth (HiMedia) and RPMI-1640 (Sigma) were prepared as recommended for antimicrobial susceptibility testing of bacterial and fungal strains, respectively. Two-fold dilutions were made in the range of 1-512 μg/mL for tested compounds. […] All experiments were performed in duplicates.

C. neoformans (H99) = experiment: Anti-ureolytic activity, colorimetric urea broth microdilution; format: cell-based, Cryptococcus neoformans; settings: read after three days, means ± SD of 3 independent experiments; for IC50: Cryptococcus neoformans, 72 h
Protocol: (§1) The colorimetric microdilution technique using urea broth media (Merck) was used to examine the ureolytic activity of C. neoformans (H99), and clinical isolate of P. mirabilis treated with tested substances (supplemented with glucose; pH = 6 for C. neoformans). Compounds in the concentration range of 1 to 512 μg/mL were exposed to ureolytic microorganisms, and the color of the medium was evaluated visually and spectroscopically at 560 nm after three days for C. neoformans and 24 h for P. mirabilis. The positive control, which included ureolytic bacteria but no drugs, changed color from yellow to dark pink or magenta. This shifts, allowing the determination of the inhibitory activity of compounds against the urease activity of organisms even without a microliter plate reader[45],[46].

P. mirabilis = experiment: as above; format: cell-based, Proteus mirabilis; settings: read after 24 h, means ± SD of 3 independent experiments; for IC50: Proteus mirabilis, read-out: urease inhibitory activity IC50 (µg/mL) ± SD
Protocol: as §1

[4] = read-out: urease inhibitory activity IC50 (µg/mL) ± SD, C. neoformans
[5] = C. neoformans, read-out: urease inhibitory activity IC50 (µg/mL) ± SD
[6] = urease enzymatic assessment, mean ± SD of three independent experiments, read-out: IC50 (µM) ± SD

Jack bean urease, sequence (P07374 whole entry, looked up): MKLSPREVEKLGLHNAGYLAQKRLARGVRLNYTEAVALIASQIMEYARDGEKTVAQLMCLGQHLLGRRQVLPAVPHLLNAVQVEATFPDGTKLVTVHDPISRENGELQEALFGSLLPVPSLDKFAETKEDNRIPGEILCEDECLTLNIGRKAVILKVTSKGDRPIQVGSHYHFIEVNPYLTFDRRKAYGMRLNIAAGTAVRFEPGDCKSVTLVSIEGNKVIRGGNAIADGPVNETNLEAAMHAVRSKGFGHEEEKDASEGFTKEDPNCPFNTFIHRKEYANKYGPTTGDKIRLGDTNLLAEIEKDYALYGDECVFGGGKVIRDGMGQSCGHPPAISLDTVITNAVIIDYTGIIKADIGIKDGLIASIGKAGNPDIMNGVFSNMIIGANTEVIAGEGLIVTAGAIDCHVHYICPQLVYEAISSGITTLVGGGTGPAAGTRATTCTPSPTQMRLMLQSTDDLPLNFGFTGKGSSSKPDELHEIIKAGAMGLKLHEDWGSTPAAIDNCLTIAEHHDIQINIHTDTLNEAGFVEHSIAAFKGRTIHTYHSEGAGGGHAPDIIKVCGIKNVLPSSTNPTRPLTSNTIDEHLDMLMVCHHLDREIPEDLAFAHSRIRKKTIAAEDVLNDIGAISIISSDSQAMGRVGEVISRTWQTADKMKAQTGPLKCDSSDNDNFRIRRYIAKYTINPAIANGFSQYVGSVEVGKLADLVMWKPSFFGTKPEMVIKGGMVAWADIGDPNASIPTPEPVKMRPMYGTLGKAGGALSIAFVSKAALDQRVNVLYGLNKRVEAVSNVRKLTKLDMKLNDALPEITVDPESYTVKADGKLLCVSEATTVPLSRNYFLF
urease (Canavalia ensiformis, UniProt P07374), sequence (P07374 whole entry, looked up): as above

Structure (SMILES) | IC50 (Jack bean urease) | MIC ([3]; read-out: MIC) | MIC (Proteus mirabilis; read-out: MIC) | IC50 (P. mirabilis) | melting point | IC50 (C. neoformans (H99); [5]) | other results
Cc1ccc(-n2c(C(O)c3ccccc3)n[nH]c2=S)cc1 (centres unmarked) [A] | – | – | – | – | – | – | IC50 (urease [1]; urease, read-out: IC50): 16.7 ± 0.178 µM
COc1ccc(NC(=O)NCc2cn(Cc3ccc(Cl)cc3Cl)nn2)cc1 [B] | – | – | – | – | – | – | IC50 (urease [1]; urease, read-out: IC50): 22.81 ± 0.05 µM
Cc1ncc([N+](=O)[O-])n1Cc1cn(Cc2ccc(F)cc2)nn1 [C] | – | – | – | – | – | – | IC50 (urease [1]; urease, read-out: IC50): 1.98 ± 0.25 µM
c1ccc(CSc2nn3c(-c4ccccc4)nnc3s2)cc1 [Compound 6a, 6-(benzylthio)-3-phenyl-[1,2,4]triazolo[3,4-b][1,3,4]thiadiazole] | 0.87 ± 0.09 µM | > 256 µg/mL | 256 µg/mL (≈ 789 µM) | 78.2 ± 8.5 µg/mL (≈ 241 µM) | 217 to 219 °C | – | improvement in the activity vs positive control (Jack bean urease; vs thiourea): around 27 times; Ki (urease [2]): 1.37 µM; type of inhibition (urease [2]; Lineweaver–Burk plot): competitive; IC50 (C. neoformans (H99); [4]): > 124 µg/mL
Fc1ccccc1CSc1nn2c(-c3ccccc3)nnc2s1 [Compound 6b, 6-((2-fluorobenzyl)thio)-3-phenyl-[1,2,4]triazolo[3,4-b][1,3,4]thiadiazole] | 1.51 ± 0.21 µM | > 256 µg/mL | 256 µg/mL (≈ 748 µM) | 87.3 ± 4.9 µg/mL (≈ 255 µM) | 190 to 192 °C | 111 ± 7.4 µg/mL (≈ 324 µM) | –
Fc1cccc(CSc2nn3c(-c4ccccc4)nnc3s2)c1 [Compound 6c, 6-((3-fluorobenzyl)thio)-3-phenyl-[1,2,4]triazolo[3,4-b][1,3,4]thiadiazole] | 1.4 ± 0.29 µM | > 256 µg/mL | 256 µg/mL (≈ 748 µM) | 79.8 ± 3.5 µg/mL (≈ 233 µM) | 216 to 218 °C | 117 ± 6.4 µg/mL (≈ 343 µM) | –
Fc1ccc(CSc2nn3c(-c4ccccc4)nnc3s2)cc1 [Compound 6d, 6-((4-fluorobenzyl)thio)-3-phenyl-[1,2,4]triazolo[3,4-b][1,3,4]thiadiazole] | 1.01 ± 0.13 µM | > 256 µg/mL | 256 µg/mL (≈ 748 µM) | 91 ± 6.4 µg/mL (≈ 266 µM) | 199 to 201 °C | 118 ± 8.6 µg/mL (≈ 344 µM) | –
Clc1ccccc1CSc1nn2c(-c3ccccc3)nnc2s1 [Compound 6e, 6-((2-chlorobenzyl)thio)-3-phenyl-[1,2,4]triazolo[3,4-b][1,3,4]thiadiazole] | 8.32 ± 1.21 µM | > 256 µg/mL | 256 µg/mL (≈ 713 µM) | 93.3 ± 5.2 µg/mL (≈ 260 µM) | 224 to 226 °C | 102 ± 3.3 µg/mL (≈ 284 µM) | MIC (µg/mL) [3]: almost inactive
Clc1cccc(CSc2nn3c(-c4ccccc4)nnc3s2)c1 [Compound 6f, 6-((3-chlorobenzyl)thio)-3-phenyl-[1,2,4]triazolo[3,4-b][1,3,4]thiadiazole] | 1.25 ± 0.19 µM | 1 µg/mL (≈ 2.79 µM) | 256 µg/mL (≈ 713 µM) | 73.2 ± 5.5 µg/mL (≈ 204 µM) | 216 to 218 °C | 87.5 ± 8.1 µg/mL (≈ 244 µM) | MFC/MBC [3]: 2 µg/mL (≈ 5.57 µM)
Clc1ccc(CSc2nn3c(-c4ccccc4)nnc3s2)cc1 [Compound 6g, 6-((4-chlorobenzyl)thio)-3-phenyl-[1,2,4]triazolo[3,4-b][1,3,4]thiadiazole] | 1.68 ± 0.73 µM | 2 µg/mL (≈ 5.57 µM) | 256 µg/mL (≈ 713 µM) | 75.4 ± 6.1 µg/mL (≈ 210 µM) | 218 to 220 °C | – | MFC/MBC [3]: 4 µg/mL (≈ 11.1 µM); urease inhibitory activity IC50 (µg/mL) ± SD (C. neoformans (H99); C. neoformans): 94.3 ± 5.9 µg/mL; IC50 (C. neoformans (H99); [4]): 93.3 µg/mL (≈ 260 µM)
Clc1ccc(CSc2nn3c(-c4ccccc4)nnc3s2)cc1Cl [Compound 6h, 6-((3,4-dichlorobenzyl)thio)-3-phenyl-[1,2,4]triazolo[3,4-b][1,3,4]thiadiazole] | 1.41 ± 0.32 µM | 0.5 µg/mL (≈ 1.27 µM) | 256 µg/mL (≈ 651 µM) | 74.5 ± 4.7 µg/mL (≈ 189 µM) | 215 to 217 °C | 83.7 ± 3.2 µg/mL (≈ 213 µM) | MFC/MBC [3]: 0.5 µg/mL (≈ 1.27 µM)
Brc1ccccc1CSc1nn2c(-c3ccccc3)nnc2s1 [Compound 6i, 6-((2-bromobenzyl)thio)-3-phenyl-[1,2,4]triazolo[3,4-b][1,3,4]thiadiazole] | 1.59 ± 0.14 µM | > 256 µg/mL | 256 µg/mL (≈ 635 µM) | 109 ± 6.2 µg/mL (≈ 271 µM) | 210 to 212 °C | 112 ± 6.7 µg/mL (≈ 278 µM) | –
Brc1cccc(CSc2nn3c(-c4ccccc4)nnc3s2)c1 [Compound 6j, 6-((3-bromobenzyl)thio)-3-phenyl-[1,2,4]triazolo[3,4-b][1,3,4]thiadiazole] | 1.05 ± 0.34 µM | > 256 µg/mL | 256 µg/mL (≈ 635 µM) | 112 ± 6.9 µg/mL (≈ 278 µM) | 225 to 227 °C | 111 ± 4.8 µg/mL (≈ 276 µM) | –
Brc1ccc(CSc2nn3c(-c4ccccc4)nnc3s2)cc1 [Compound 6k, 6-((4-bromobenzyl)thio)-3-phenyl-[1,2,4]triazolo[3,4-b][1,3,4]thiadiazole] | – | – | – | – | – | – | IC50 (Jack bean urease; [6]): 1.53 ± 0.17 µM; MIC [3]: > 256 µg/mL; MIC (Proteus mirabilis): 256 µg/mL (≈ 635 µM); urease inhibitory activity IC50 (µg/mL) ± SD (C. neoformans (H99); C. neoformans): 118.7 ± 5.5 µg/mL; urease inhibitory activity IC50 (µg/mL) ± SD (P. mirabilis): 113.7 ± 4.6 µg/mL
O=[N+]([O-])c1ccc(CSc2nn3c(-c4ccccc4)nnc3s2)cc1 [Compound 6l, 6-((4-nitrobenzyl)thio)-3-phenyl-[1,2,4]triazolo[3,4-b][1,3,4]thiadiazole] | – | – | – | – | – | – | IC50 (Jack bean urease; [6]): 2.22 ± 0.18 µM; MIC [3]: > 256 µg/mL; MIC (Proteus mirabilis): 256 µg/mL (≈ 693 µM); urease inhibitory activity IC50 (µg/mL) ± SD (C. neoformans (H99); C. neoformans): 113.6 ± 5.4 µg/mL; urease inhibitory activity IC50 (µg/mL) ± SD (P. mirabilis): 91.8 ± 7.0 µg/mL
Cc1ccccc1CSc1nn2c(-c3ccccc3)nnc2s1 [Compound 6m, 6-((2-methylbenzyl)thio)-3-phenyl-[1,2,4]triazolo[3,4-b][1,3,4]thiadiazole] | – | – | – | – | – | – | IC50 (Jack bean urease; [6]): 1.6 ± 0.23 µM; MIC [3]: > 256 µg/mL; MIC (Proteus mirabilis): 256 µg/mL (≈ 756 µM); urease inhibitory activity IC50 (µg/mL) ± SD (C. neoformans (H99); C. neoformans): 110.9 ± 3.8 µg/mL; urease inhibitory activity IC50 (µg/mL) ± SD (P. mirabilis): 95.7 ± 6.6 µg/mL
Cc1cccc(CSc2nn3c(-c4ccccc4)nnc3s2)c1 [Compound 6n, 6-((3-methylbenzyl)thio)-3-phenyl-[1,2,4]triazolo[3,4-b][1,3,4]thiadiazole] | – | – | – | – | – | – | IC50 (Jack bean urease; [6]): 1.23 ± 0.56 µM; MIC [3]: > 256 µg/mL; MIC (Proteus mirabilis): 256 µg/mL (≈ 756 µM); urease inhibitory activity IC50 (µg/mL) ± SD (C. neoformans (H99); C. neoformans): 112.3 ± 4.6 µg/mL; urease inhibitory activity IC50 (µg/mL) ± SD (P. mirabilis): 96.8 ± 4.7 µg/mL
CSc1nn2c(-c3ccccc3)nnc2s1 [Compound 6o, 6-(methylthio)-3-phenyl-[1,2,4]triazolo[3,4-b][1,3,4]thiadiazole] | – | – | – | – | 213 to 215 °C | – | –
Cc1cccc(C)c1Nc1nnc(-c2ccc(Cl)cc2)s1 [D] | – | – | – | – | – | – | IC50 (urease [1]; urease, read-out: IC50): 214.7 ± 0.16 µM
CCNc1nnc(Cc2nc3ccccc3c(=O)n2Cc2ccc(F)cc2)s1 [E] | – | – | – | – | – | – | IC50 (urease [1]; urease): 1.88 ± 0.17 µg/mL
O=C(NC1CCCCC1)C(c1cccs1)N(C(=O)CSc1nnc(-c2ccc([N+](=O)[O-])o2)s1)c1ccccc1 (centres unmarked) [F] | – | – | – | – | – | – | improvement in the inhibitory potency against urease compared to thiourea (urease [1]): tenfold; mode of inhibition (urease [1]; urease): non-competitive
OC(Cn1cncn1)(Cn1cncn1)c1ccc(F)cc1F [Fluconazole, reference compound] | – | 2 µg/mL (≈ 6.53 µM) | – | – | – | – | –
NC(N)=S [Thiourea, reference compound] | – | – | – | – | – | – | IC50 (Jack bean urease; [6]): 22.5 ± 2.34 µM
